pIC50: −log10 of the molar value. Values after ≈ are worked out from the molar mass of the structure shown. Active and inactive are the calls of the source. The calls are words filed in the database; no cut-off is given here.
Key:
[1] = Octanol-water partition coefficient, log D at pH 7.4 by shake flask method; format: physicochemical
[2] = target: Metabotropic glutamate receptor 1 (Homo sapiens, UniProt Q13255); assay: Antagonist activity at human mGluR1 expressed in CHO cells assessed as calcium flux by FLIPR assay; format: functional, cell-based
[3] = target: Metabotropic glutamate receptor 1 (Mus musculus, UniProt P97772); assay: Antagonist activity at mouse mGluR1 expressed in CHO cells assessed as calcium flux by FLIPR assay; format: functional, cell-based
[4] = target: Metabotropic glutamate receptor 5 (Homo sapiens, UniProt P41594); assay: Antagonist activity at human mGluR5 expressed in CHO cells assessed as calcium flux by FLIPR assay; format: functional, cell-based
Mus musculus [5] = assay: Inhibition of (S)-3,5-[…]-induced face washing behavior in mouse administered 30 mins before (S)-3,5-DHPG measured after 5 mins; format: functional, organism-based
[6] = Solubility in water by ultra performance liquid chromatography; format: physicochemical
[7] = Metabolic stability in human liver microsomes at 1 uM after 30 mins; format: ADME, Microsome; conditions: read-out: Stability
[8] = Metabolic stability in rat liver microsomes at 1 uM after 30 mins; format: ADME, Microsome; conditions: read-out: Stability
[9] = Metabolic stability in mouse liver microsomes at 1 uM after 30 mins; format: ADME, Microsome; conditions: read-out: Stability
Mus musculus [10] = assay: Inhibition of (S)-3,5-[…]-induced face washing behavior in mouse at 3 to 10 mg/kg, ip administered 30 mins before (S)-3,5-DHPG measured after 5 mins; format: functional, organism-based
[11] = target: Metabotropic glutamate receptor 2 (Homo sapiens) (UniProt Q14416); assay: Activity at human mGluR2 expressed in CHO cells at 10 uM by [35S]GTPgammaS binding assay; format: functional, cell-based
[12] = target: Metabotropic glutamate receptor 4 (Homo sapiens) (UniProt Q14833); assay: Activity at human mGluR4 expressed in CHO cells at 10 uM by [35S]GTPgammaS binding assay; format: functional, cell-based
[13] = target: Metabotropic glutamate receptor 6 (Homo sapiens) (UniProt O15303); assay: Activity at human mGluR6 expressed in CHO cells at 10 uM by [35S]GTPgammaS binding assay; format: functional, cell-based
[14] = target: Metabotropic glutamate receptor 7 (Homo sapiens) (UniProt Q14831); assay: Activity at human mGluR7 expressed in CHO cells at 10 uM by [35S]GTPgammaS binding assay; format: functional, cell-based
[15] = target: Metabotropic glutamate receptor 8 (Homo sapiens) (UniProt O00222); assay: Activity at human mGluR8 expressed in CHO-K1 cells at 10 uM by [35S]GTPgammaS binding assay; format: functional, cell-based
[16] = Inhibition of AMPA receptor
[17] = Inhibition of NMDA receptor
[18] = Inhibition of kainate receptor
Mus musculus [19] = assay: Inhibition of (S)-3,5-[…]-induced face washing behavior in mouse at 10 to 30 mg/kg, ip administered 30 mins before (S)-3,5-DHPG measured after 5 mins; format: functional, organism-based
Mus musculus [20] = assay: Inhibition of (S)-3,5-[…]-induced face washing behavior in mouse at 10 to 30 mg/kg, po administered 30 mins before (S)-3,5-DHPG measured after 5 mins; format: functional, organism-based
[21] = Plasma concentration in mouse at 10 mg/kg, po after 30 mins; format: ADME, organism-based; design: dose 10 mg/kg, route oral
Mus musculus [22] = assay: Brain concentration in mouse at 10 mg/kg, po after 30 mins; format: ADME, organism-based; design: dose 10 mg/kg, route oral; conditions: in vivo, 0.5 h
[23] = Half life in rat at 1 mg/kg, iv; format: ADME, organism-based; design: dose 1 mg/kg, route intravenous; conditions: in vivo
[24] = Total plasma clearance in rat at 1 mg/kg, iv; format: ADME, organism-based; design: dose 1 mg/kg, route intravenous
[25] = Oral bioavailability in rat at 3 mg/kg; format: ADME, organism-based; conditions: in vivo

Sequence of Metabotropic glutamate receptor 5 (P41594 whole entry): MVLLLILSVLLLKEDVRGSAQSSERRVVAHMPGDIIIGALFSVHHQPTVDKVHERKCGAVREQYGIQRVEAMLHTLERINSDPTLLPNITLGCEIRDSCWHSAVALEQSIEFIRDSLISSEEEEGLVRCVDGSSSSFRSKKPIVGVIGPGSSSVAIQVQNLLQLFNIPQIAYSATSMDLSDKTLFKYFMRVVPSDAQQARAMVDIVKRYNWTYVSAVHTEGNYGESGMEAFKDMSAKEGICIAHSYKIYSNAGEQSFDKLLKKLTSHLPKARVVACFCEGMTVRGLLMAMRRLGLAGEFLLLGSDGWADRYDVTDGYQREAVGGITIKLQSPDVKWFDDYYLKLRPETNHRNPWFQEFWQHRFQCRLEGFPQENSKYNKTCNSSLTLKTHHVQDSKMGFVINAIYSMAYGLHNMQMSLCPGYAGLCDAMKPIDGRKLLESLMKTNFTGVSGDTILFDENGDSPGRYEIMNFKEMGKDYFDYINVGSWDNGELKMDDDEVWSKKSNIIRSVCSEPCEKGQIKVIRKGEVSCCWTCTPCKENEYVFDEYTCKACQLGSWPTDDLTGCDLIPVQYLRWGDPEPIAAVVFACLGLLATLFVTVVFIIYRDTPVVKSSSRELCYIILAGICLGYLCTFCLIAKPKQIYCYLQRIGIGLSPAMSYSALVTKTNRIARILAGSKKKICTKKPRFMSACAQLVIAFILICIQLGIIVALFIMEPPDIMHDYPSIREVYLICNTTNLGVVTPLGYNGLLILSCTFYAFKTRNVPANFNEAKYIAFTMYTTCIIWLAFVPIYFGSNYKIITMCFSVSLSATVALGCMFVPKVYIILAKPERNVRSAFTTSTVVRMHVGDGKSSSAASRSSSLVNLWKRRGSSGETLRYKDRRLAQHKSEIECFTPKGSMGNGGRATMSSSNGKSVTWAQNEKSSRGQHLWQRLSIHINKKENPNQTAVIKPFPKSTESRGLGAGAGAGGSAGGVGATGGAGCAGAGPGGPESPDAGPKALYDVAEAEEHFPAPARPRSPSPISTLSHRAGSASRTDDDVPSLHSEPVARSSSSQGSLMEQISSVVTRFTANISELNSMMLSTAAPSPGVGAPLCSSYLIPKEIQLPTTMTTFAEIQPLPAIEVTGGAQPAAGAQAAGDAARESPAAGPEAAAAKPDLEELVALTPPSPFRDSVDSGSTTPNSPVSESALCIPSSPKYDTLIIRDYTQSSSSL
Sequence of Metabotropic glutamate receptor 1 (Homo sapiens, UniProt Q13255) (Q13255 whole entry): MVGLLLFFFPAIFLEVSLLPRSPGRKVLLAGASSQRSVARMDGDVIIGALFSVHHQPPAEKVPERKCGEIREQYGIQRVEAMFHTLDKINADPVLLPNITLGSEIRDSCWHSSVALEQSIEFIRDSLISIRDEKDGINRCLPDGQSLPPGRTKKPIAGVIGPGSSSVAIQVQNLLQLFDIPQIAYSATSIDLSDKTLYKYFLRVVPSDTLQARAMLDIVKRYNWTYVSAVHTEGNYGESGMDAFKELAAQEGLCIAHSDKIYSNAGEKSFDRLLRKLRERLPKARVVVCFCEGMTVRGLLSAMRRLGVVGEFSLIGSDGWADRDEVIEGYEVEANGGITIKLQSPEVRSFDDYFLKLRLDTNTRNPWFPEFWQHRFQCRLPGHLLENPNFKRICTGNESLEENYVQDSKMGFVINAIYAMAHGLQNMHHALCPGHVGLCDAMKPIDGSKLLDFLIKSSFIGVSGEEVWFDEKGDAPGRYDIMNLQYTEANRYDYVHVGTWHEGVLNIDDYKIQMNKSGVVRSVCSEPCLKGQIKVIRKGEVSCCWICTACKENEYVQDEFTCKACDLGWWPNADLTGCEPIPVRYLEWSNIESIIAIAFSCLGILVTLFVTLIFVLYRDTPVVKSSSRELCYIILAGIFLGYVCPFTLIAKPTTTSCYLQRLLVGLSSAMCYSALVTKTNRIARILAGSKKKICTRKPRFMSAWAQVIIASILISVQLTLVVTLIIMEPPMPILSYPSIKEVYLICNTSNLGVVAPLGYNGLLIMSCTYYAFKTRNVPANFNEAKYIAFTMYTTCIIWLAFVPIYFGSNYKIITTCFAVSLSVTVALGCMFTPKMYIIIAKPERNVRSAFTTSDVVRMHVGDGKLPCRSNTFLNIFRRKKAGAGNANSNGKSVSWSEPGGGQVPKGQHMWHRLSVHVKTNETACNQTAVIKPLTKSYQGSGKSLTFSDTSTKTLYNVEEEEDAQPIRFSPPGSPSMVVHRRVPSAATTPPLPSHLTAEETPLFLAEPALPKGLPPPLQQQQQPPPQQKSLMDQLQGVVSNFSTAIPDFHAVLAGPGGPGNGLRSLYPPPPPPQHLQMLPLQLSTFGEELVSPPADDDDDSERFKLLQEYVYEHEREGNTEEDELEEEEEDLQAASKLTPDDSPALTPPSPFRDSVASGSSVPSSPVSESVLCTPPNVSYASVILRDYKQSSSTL
Sequence of Metabotropic glutamate receptor 1 (Mus musculus, UniProt P97772) (P97772 whole entry): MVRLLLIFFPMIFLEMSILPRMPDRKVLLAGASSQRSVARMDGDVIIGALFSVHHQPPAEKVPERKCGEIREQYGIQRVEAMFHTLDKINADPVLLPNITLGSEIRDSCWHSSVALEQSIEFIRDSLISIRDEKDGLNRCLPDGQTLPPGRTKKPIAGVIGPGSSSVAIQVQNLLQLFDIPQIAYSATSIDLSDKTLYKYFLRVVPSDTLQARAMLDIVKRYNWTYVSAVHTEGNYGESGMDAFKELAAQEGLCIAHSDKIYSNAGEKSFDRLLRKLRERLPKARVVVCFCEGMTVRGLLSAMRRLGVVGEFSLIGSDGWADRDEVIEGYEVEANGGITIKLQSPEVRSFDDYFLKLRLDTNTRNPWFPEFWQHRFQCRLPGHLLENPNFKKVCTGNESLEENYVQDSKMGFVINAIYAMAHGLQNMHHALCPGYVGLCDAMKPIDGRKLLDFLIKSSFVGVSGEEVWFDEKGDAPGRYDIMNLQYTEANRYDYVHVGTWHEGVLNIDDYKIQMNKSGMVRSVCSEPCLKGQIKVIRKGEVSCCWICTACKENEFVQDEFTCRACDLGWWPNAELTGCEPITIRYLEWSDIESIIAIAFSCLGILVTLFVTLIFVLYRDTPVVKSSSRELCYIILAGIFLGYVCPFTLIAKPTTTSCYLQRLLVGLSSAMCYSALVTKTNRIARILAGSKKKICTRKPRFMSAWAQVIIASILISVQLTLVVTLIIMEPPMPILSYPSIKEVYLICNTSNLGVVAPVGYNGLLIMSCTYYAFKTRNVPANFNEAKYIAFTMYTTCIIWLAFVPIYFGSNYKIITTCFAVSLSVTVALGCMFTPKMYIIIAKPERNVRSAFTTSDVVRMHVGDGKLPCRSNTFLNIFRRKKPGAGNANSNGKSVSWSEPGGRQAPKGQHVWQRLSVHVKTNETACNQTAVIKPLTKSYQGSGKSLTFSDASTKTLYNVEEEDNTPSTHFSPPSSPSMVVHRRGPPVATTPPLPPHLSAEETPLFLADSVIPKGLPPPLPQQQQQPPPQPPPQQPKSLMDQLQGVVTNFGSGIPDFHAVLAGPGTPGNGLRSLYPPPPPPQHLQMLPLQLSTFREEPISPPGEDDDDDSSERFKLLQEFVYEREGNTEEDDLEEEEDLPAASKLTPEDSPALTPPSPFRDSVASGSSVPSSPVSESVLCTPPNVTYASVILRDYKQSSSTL
Sequence of Metabotropic glutamate receptor 7 (Homo sapiens) (Q14831 whole entry): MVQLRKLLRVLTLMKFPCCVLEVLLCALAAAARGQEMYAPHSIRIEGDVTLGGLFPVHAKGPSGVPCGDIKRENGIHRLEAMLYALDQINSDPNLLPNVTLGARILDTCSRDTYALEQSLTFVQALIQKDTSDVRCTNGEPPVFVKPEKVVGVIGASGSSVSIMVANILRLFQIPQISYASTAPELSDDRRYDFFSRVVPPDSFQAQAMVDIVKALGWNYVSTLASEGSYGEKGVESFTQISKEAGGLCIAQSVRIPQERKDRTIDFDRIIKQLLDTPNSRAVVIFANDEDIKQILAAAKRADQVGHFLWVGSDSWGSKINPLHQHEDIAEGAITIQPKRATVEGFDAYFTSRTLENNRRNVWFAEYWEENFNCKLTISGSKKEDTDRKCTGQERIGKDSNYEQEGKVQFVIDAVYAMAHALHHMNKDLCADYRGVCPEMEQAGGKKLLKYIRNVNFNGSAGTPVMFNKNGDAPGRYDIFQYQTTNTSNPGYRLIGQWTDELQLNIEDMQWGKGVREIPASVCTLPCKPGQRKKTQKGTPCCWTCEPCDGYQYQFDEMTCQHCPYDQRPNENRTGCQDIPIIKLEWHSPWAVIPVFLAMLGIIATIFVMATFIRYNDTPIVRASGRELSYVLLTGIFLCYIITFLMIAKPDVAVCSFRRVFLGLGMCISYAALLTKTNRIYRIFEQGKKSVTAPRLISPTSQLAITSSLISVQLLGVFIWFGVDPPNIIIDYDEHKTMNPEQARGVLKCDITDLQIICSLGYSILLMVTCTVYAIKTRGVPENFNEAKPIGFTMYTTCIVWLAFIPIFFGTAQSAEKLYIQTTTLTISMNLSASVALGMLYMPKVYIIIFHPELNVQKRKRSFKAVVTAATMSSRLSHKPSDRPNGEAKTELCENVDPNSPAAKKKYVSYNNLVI

Row | SMILES | logD [1] | pIC50 [2] | pIC50 [3] | pIC50 [4] | also measured
1 | Cc1c(C2=CCN(C(=O)OC(C)C)CC2)nnn1-c1cccnc1F | 2.8 | 8.14 | 8.48 | 7.40 | –
2 | CC(C)OC(=O)N1CC=C(c2cn(-c3cccnc3F)nn2)CC1 | 2.8 | 7.41 | 6.74 | 5.41 | –
3 | CC(C)(C)OC(=O)N1CC=C(c2cn(-c3cccnc3)nn2)CC1 | 3 | 7.26 | 6.74 | 5.08 | –
4 | CC(C)(C)OC(=O)N1CC=C(c2cn(-c3cccnc3F)nn2)CC1 | 3.1 | 8.59 | 7.92 | 5.37 | –
5 | N[C@H](C(=O)O)c1ccc(C(=O)O)cc1 | – | – | – | – | Activity (Mus musculus [5]): Active
6 | Cc1c(C2=CCN(C(=O)OC(C)(C)C)CC2)nnn1-c1cccnc1F | 2.9 | 8.15 | 8.82 | 6.77 | solubility [6]: 155 µM (≈ 55.7 µg/mL); remaining at 0.5 h, 1 µM [7]: 90%; remaining at 0.5 h, 1 µM [8]: 70%; remaining at 0.5 h, 1 µM [9]: 2%; Activity (Mus musculus [10]): Active
7 | CC(C)(C)OC(=O)N1CC=C(c2cn(-c3ccccc3)nn2)CC1 | > 4 | 8.01 | 7.62 | 6.09 | solubility [6]: 2.4 µM (≈ 0.783 µg/mL); remaining at 0.5 h, 1 µM [7]: 57%; remaining at 0.5 h, 1 µM [8]: 16%
8 | CC(C)(C)OC(=O)N1CC=C(c2cn(-c3ccccn3)nn2)CC1 | > 4 | 7.31 | 6.82 | 5.06 | –
9 | Cc1c(C2=CCN(C(=O)N(C)C(C)C)CC2)nnn1-c1cccnc1F | 2.1 | – | 8.51 | 5.21 | Activity [11]: inactive; Activity [12]: inactive; Activity [13]: inactive; Activity [14]: inactive; Activity [15]: inactive; pIC50 [16]: < 5.00; pIC50 [17]: < 5.00; pIC50 [18]: < 5.00; solubility [6]: > 170 µM; remaining at 0.5 h, 1 µM [7]: 85%; remaining at 0.5 h, 1 µM [8]: 61%; remaining at 0.5 h, 1 µM [9]: 27%; Activity (Mus musculus [19]): Active; Activity (Mus musculus [20]): Active; concentration at 0.5 h [21]: 210 nM; Drug uptake (Mus musculus [22]): 0.17 nmol/g; half-life [23]: 12 min; clearance [24]: 57 mL/min/kg; bioavailability [25]: 18%
10 | CC(C)(C)OC(=O)N1CC=C(c2cn(-c3ccccc3F)nn2)CC1 | > 4 | 8.20 | 7.80 | 6.00 | –
11 | CC(C)(C)OC(=O)N1CC=C(c2cn(-c3cccc(F)c3)nn2)CC1 | > 4 | 7.74 | 7.41 | 5.96 | –
12 | CC(C)(C)OC(=O)N1CC=C(c2cn(-c3ccncc3)nn2)CC1 | – | 6.66 | 6.00 | < 5.00 | –
13 | CC(C)(C)NC(=O)N1CC=C(c2cn(-c3ccccc3F)nn2)CC1 | 3.2 | 7.24 | 6.54 | 5.07 | –
14 | CC(C)(C)OC(=O)N1CC=C(c2cn(-c3ccc(F)cc3)nn2)CC1 | > 4 | 7.80 | 7.51 | 5.96 | –
15 | Cc1ccccc1-n1cc(C2=CCN(C(=O)OC(C)(C)C)CC2)nn1 | > 4 | 7.96 | 7.24 | 6.06 | –
16 | CC(C)(C)CC(=O)N1CC=C(c2cn(-c3ccccc3F)nn2)CC1 | – | 6.92 | 6.80 | < 5.00 | –
17 | COc1ccccc1-n1cc(C2=CCN(C(=O)OC(C)(C)C)CC2)nn1 | – | 6.23 | 5.80 | 5.40 | –
18 | NC1(C(=O)O)CCc2cc(C(=O)O)ccc21 (racemic) | – | – | – | – | Activity (Mus musculus [5]): Active

— ChEMBL document CHEMBL1142531, “Discovery and biological profile of 4-(1-aryltriazol-4-yl)-tetrahydropyridines as an orally active new class of metabotropic glutamate receptor 1 antagonist” (Bioorg Med Chem, 2008)
